test system: DTH granuloma (DTH GRA) lesion in mBSA-sensitized mice; assay: Delayed Type Hypersensitivity Granuloma Assay (DTH GRA) model for inflammation; assay type: in vivo, mouse; conditions: 10 MPK, PO; mBSA-sensitized mice, mBSA-soaked filter excised after nine days
From the text: The Formula I compounds of this invention have been tested in a Delayed Type Hypersensitivity Granuloma Assay (DTH GRA) model for inflammation. This assay is described by Dunn, C. J. et al., "Development of a delayed-type hypersensitivity granuloma model in the mouse for the study of chronic immune-mediated inflammatory disease," Agents and Actions, 27, 3/4 (1989) and "Murine Delayed-Type Hypersensitivity Granuloma," Int. J. Immunopharmc., 12, 8, 899-904 (1990).
Briefly, mBSA-sensitized mice have a DTH granuloma (DTH GRA) lesion induced by subcutaneously implanting a mBSA-soaked filter which is excised after nine days. Compounds are administered to the mice to determine their effect on the lesions. The results are recorded as percent inhibition. […] Inhibition of 10 to 20% is considered to indicate anti-granuloma activity. Greater than 30% inhibition is good activity.

CCOC(=O)C1=NNC(C(=O)OC)(P(=O)(OC)OC)C1 (stereo not drawn) [Compound 8, 1H-Pyrazole-5-carboxylic-acid, 3-carboethoxy-5-(dimethoxyphosphinyl)-4,5-dihydro, methyl ester] was tested, and the “% Inhibition (DTH granuloma)” value was 59%.

same assay, conditions: Mus musculus, 216 h; 10 MPK, PO; mBSA-sensitized mice, mBSA-soaked filter excised after nine days; read-out: % Inhibition (DTH granuloma)

Going from COC(=O)C1(P(=O)(OC)OC)CC(C(=O)c2ccccc2)=NN1 (stereo not drawn) [Compound 9, 1H-Pyrazole-5-carboxylic acid, 3-benzoyl-5-(dimethoxyphosphinyl)-4,5-dihydro-, methyl ester] to COC(=O)C1(P(=O)(OC)OC)CC1C(=O)c1ccccc1 (stereo not drawn) [Compound 10, Cyclopropanecarboxylic acid, 2-benzoyl-1-(dimethoxyphosphinyl)-, methyl ester], the inhibition in vivo at 10 mg/kg rises from 37% to 47%.

First: COP(=O)(OC)C(CCc1nc(-c2ccccc2)cc(=O)n1C)C(=O)OC(C)(C)C (stereo not drawn) [Compound 15, 2-Pyrimidine butanoic acid, α-(dimethoxyphosphinyl)-1,6-dihydro-1-methyl-6-oxo-4-phenyl, dimethylethyl ester]
Second: COC(=O)C(CCc1nc(-c2ccccc2)cc(=O)n1C)P(=O)(OC)OC (stereo not drawn) [Compound 6a, 2-Pyrimidinebutanoic acid, α-(dimethoxyphosphinyl)-1,6-dihydro-1-methyl-6-oxo-4-phenyl-, methyl ester]
The inhibition in vivo at 10 mg/kg of the first is lower: 21% for the first, 51% for the second.

Compared with COC(=O)C(CCC(=O)c1cccnc1)P(=O)(OC)OC (stereo not drawn) [Compound 4, 3-Pyridinepentanoic acid, α-(dimethoxyphosphinyl)-δ-oxo-, methyl ester], COC(=O)C(CCC(=O)c1cccc(F)c1)P(=O)(OC)OC (stereo not drawn) [Compound 2, Benzenepentanoic acid, α-(dimethoxyphosphinyl)-3-fluoro-δ-oxo-,methyl ester] is lower in inhibition in vivo at 10 mg/kg: 37% for the first, 26% for the second.

Compared with COC(=O)C(CCc1cc(C)nc2c(C#N)c(C)nn12)P(=O)(OC)OC (stereo not drawn) [Compound 7, Pyrazolo(1,5-a)pyrimidine-7-butanoic acid, 3-cyano-α-(dimethoxyphosphinyl)-2,5-dimethyl-, methyl ester], COC(=O)C(CCc1nc(-c2ccccc2)cc(=O)n1C)P(=O)(O)O (stereo not drawn) [Compound 6b] is lower in inhibition in vivo at 10 mg/kg: 38% for the first, 37% for the second.

CCOC(=O)C(CC(C(=O)c1ccccc1)c1ccccc1)P(=O)(OCC)OCC (stereo not drawn) [Compound 3, Benzenepentanoic acid, α-(diethoxyphosphinyl)-δ-oxo-γ-phenyl-, ethyl ester] was tested, and the inhibition in vivo at 10 mg/kg was 21%.

same assay, conditions: Mus musculus, 216 h; at 50 MPK, PO; mBSA-sensitized mice, mBSA-soaked filter excised after nine days

With CCOC(=O)C(CCC(=O)c1ccccc1)P(=O)(OCC)OCC (stereo not drawn) [Compound 1, Benzenepentanoic acid, α-(diethoxyphosphinyl)-δ-oxo-, ethyl ester] the inhibition in vivo at 50 mg/kg was 37%.

same assay, conditions: Mus musculus, po, 216 h, read-out: % Inhibition (DTH granuloma)

For COC(=O)C1(P(=O)(OC)OC)CN1N1C(=O)c2ccccc2C1=O (stereo not drawn) [Compound 11, 2-Aziridinecarboxylic acid, 1-(1,3-dihydro-1,3-dioxo-2H-isoindol-2-yl)-2-(dimethoxyphosphinyl)-, methyl ester], the inhibition in vivo at 10 mg/kg was 42%.
